Measurements from ChEMBL document CHEMBL1150730, “Secondary metabolites from Fusarium. Two new modified trichothecenes from Fusarium sporotrichioides MC-72083” (J Nat Prod, 1987).

Assay: Toxicity in chick embryo measured per egg after 4 days
Parameters: species or system Gallus gallus
Settings: chicken, 96 h

Row | SMILES | LD50
1 | CC1=C[C@@H]2OC[C@]3(O)C(=O)CC[C@]3(C)[C@@]2(C)C[C@H]1O | > 10 µg
2 | CC1=C[C@@H]2OC[C@]3(O)C(=O)CC[C@]3(C)[C@@]2(C)C[C@@H]1O | > 10 µg
